Literature values, collected in patent US20160128943A1, “CONTROLLED RELEASE CAFFEINE DOSAGE FORMS” (priority 2013, published 2016).

What was measured:
central nervous system = conditions: after absorption

Cn1c(=O)c2c(ncn2C)n(C)c1=O [caffeine]
time to peak levels in the circulation of the bloodstream (after consumption): fifteen and forty-five
average half-life (average person, after ingestion): three and one half
time to maximum effect of central nervous system stimulation (central nervous system): thirty and sixty
